The results in this text go back to patent publication US20250269031A1, “MITOCHONDRIA TARGETING QUINOLINIUM-DRUG CONJUGATES AND THEIR SELF-ASSEMBLING NANOFORMULATIONS FOR CANCER THERAPY” (THE REGENTS OF THE UNIVERSITY OF CALIFORNIA, priority 2020, published 2025).

Series [1] has as its system OSC-3 cells. Put plainly: Cell viability assay (CellTiter-Glo), OSC-3. It is filed as cell-based. The following applies: for IC50: read-out: IC50 cytotoxicity; for anticancer effect: OSC-3, with light, 0.3 μM to 1 μM. In general terms: In ATP-based viability assays light output follows the ATP content of the culture.
Description: OSC-3, BXPC-3, AsPC-1, PANC-1, UM-UC-3, 5637, or IMR90 cells were seeded in 96-well plates at a density of 5×10^3 cells per well and were grown overnight. Cells were incubated with various concentrations of drugs for 24 h, followed washing with PBS three times, and adding 100 μL fresh medium. For light-treated groups, cells were irradiated for 30 s using a 633-nm LED array (Omnilux new-U) at a power density of 30 mW cm^−2 at room temperature and then were cultured for another 24 h in parallel with non-light treated groups. Cell viability was quantified using the CellTiter-Glo assay (Promega, USA).
Series [2] relates to OSC-3 cells. The series is described as follows: Mitochondrial membrane potential assay (JC-1). The class given is cell-based. The following applies: 1 μM, with light. On the procedure:
The mitochondrial membrane potential was determined using the dye JC-1 as a probe (Thermo Fisher Scientific, USA). Briefly, OSC-3 cells (2×10^4 cells per well) were treated with drugs (1 μM) for 24 h. […] JC-1 (5 μg mL^−1) was added to incubate for 20 min. Cell imaging was performed on a CLSM (Carl Zeiss, Germany). The ratio of red/green fluorescence intensity was calculated by ImageJ software.

Series [3] has as its system OSC-3 cells. Put plainly: Cell TEM study of mitochondria morphology. It is filed as cell-based. The following applies: 0.5 μM, 24 h.
For series [4], the system named is subcutaneous OSC-3 tumor. The series is described as follows: In vivo anticancer study, subcutaneous oral cancer model. On the set-up: species or system nude mice. As to conditions: for H&E staining of tumors: 24 h drug, then laser; for antitumor effect: with laser; for antitumor efficacy: without laser. The source says: (§1) Female athymic nude mice, 6-week-old, were purchased from Envigo (Indianapolis, IN, USA). All animal experiments were strictly performed in compliance with the protocol (#20265) approved by the Institutional Animal Care and Use Committee at the University of California, Davis. The subcutaneous and orthotopic tumor models were established by inoculated OSC-3 cells into both flanks (5×10^6 cells per tumor) or lower lips (1×10^6 cells per tumor) of nude mice. When the subcutaneous tumors reached about 80 mm^3 and orthotopic tumors reached about 50 mm^3, the mice started to be treated as indicated.
Laser (680 nm) treatment was conduct by a laser device within an energy of 0.2 W cm^−2 for 6 min (Shanghai Xilong Optoelectronics Technology, China). […] The drug was intratumorally injected into mice at a dose of 1 mM (10 nmol per 50 mm^3 tumor). Laser treatment was performed for a total of four times, one each on days 1, 2, 5, and 6 post-injection of drugs. The relative tumor value and body weight were recorded every two days. In subcutaneous models, the tumors in the right flank of mice were subjected to laser treatment, while the left tumors were not. In orthotopic models, all tumors were treated with the laser treatment. The temperature of tumor surface was monitored using a thermal camera (FLIR Systems, USA) immediately after laser treatment. ROS production in the tumor after light treatment was also measured using DCF-DA as an indicator. Briefly, the tumor was treated with different drugs via intratumoral injection at first. Then, the mice with tumors were treated with the laser at 1st, 2nd, 5th, and 6th day independently. After each light treatment, the mice were sacrificed immediately, and the obtained tumors were cut into small pieces and immersed in the DCF-DA solutions for 10 min. Finally, the tumors pieces were imaged by the ChemiDoc™ MP imaging system with the FITC channel. The fluorescence intensity of DCF-DA was quantified by Image J software. Mice were sacrificed after the first light treatment to obtain tumor and organs tissue for TEM, H&E, and IHC evaluation.

Series [5] deals with Pancreatic cancer stem cells (CSC). Put plainly: Cell viability assay, pancreatic cancer stem cells. It is filed as cell-based. The procedure:
Cell viability assay. Pancreatic cancer stem cells (CSC, 5×10^3 cells per well) was plated in 96-well plates, incubated overnight, and then were treated with different concentrations of agents as indicated. After 72 h treatment, cell viability was quantified using the CellTiter-Glo assay Cell viability curves and the chemical structures of LM, LND, and m104 are shown in FIG. 31A and FIG. 31B.

The test system of series [6] is Pancreatic cancer stem cells. Put plainly: Cell growth assay. The class given is cell-based. As to conditions: 2 μM. The procedure: Cell growth. Pancreatic cancer stem cells were plated in 6-well plates (50,000 cell per well) and treated as indicated and were counted manually every 24 h. The cell growth is plotted over time in FIG. 31C.
Another series concerns Bxpc-3 and AsPc cells. The series is described as follows: Cell viability, Bxpc-3 and AsPc. The class given is cell-based. The following applies: 72 h treatment. The procedure:
Cell viability. Bxpc-3 and AsPc cells (CSC, 5×10^3 cells per well) was plated in 96-well plates, incubated overnight, and then were treated with different concentrations of agents as indicated. After 72 h treatment, cell viability was quantified using the CellTiter-Glo assay.

Series [7] relates to Pancreatic cancer stem cells. The series is described as follows: Sphere formation. It is filed as cell-based. The following applies: 5 μM, 10 days.
Description: Pancreatic cancer stem cells (3000 cells per well) were mixed with matrigel and medium, and then placed in 24-well plates with pre-embedded matrigel and medium. After 24 h incubation, CSC cells were then treated with different agents as indicated and cultured for 10 days. The cells were imaged as shown in FIG. 33A and the sphere diameters were calculated by ImageJ and are plotted in FIG. 33B.
In series [8] the test system is CSC spheres (with Stella cell). The series is described as follows: Sphere growth, CSC spheres with Stella cell. It is filed as cell-based. The following applies: 5 μM.
Description: Sphere growth. […] CSC cells (800 cells per well) and stella cells (400 cells per well) were plated together in 96-well low-attachment plates and incubated overnight. CSC spheres then were treated with different agents as indicated. Spheres growth was monitored by CLSM (every two days).
Series [9] relates to CSC cells. The series is described as follows: Mitochondria membrane potential (JC-1), CSC. The class given is cell-based. As to conditions: 24 h. On the procedure:
Mitochondria membrane potential. JC-1 dye was used as an indicator of mitochondrial membrane potential. Briefly, Cells (2×10^4 cells per well) were treated as indicated for 24 h, washed and cultured with fresh medium. Then 0.5 μg/mL JC-1 was added for another 30 min incubation. Images were captured by CLSM.

Series [10] relates to CSC cells. The series is described as follows: Seahorse assay (oxygen consumption rate). It is filed as cell-based. As to conditions: 24 h.
Description: Seahorse assay. CSC cells (2×10^4 cells per well) were treated as indicated for 24 h. The Oxygen Consumption Rate (OCR) were measured by the Agilent Seahorse XF analyzer.
The test system of series [11] is OSC-3 cells. The series is described as follows: Colocalization assay (MitoTracker, LysoTracker, CLSM). It is filed as cell-based. As to conditions: 2 μM, 4 h. On the procedure: OSC-3 cells were treated with PQC NFs (2 μM) for various times (from 5 min to 8 h) or with PA (2 μM) for 4 h, followed by incubation with LysoTracker Green (Thermo Fisher Scientific, USA) and MitoTracker Red (Cell Signaling Technology, USA) for 30 min. Cells were visualized on confocal laser scanning microscopy (CLSM) (Carl Zeiss, Germany) immediately to investigate the subcellular localization. Signals of PQC NPs and PA were observed on the Cy5 channel. LysoTracker and MitoTracker were observed according the manufacturer's instructions. The corresponding Pearson correlation coefficient was calculated by ImageJ software.

Series [12] relates to OSC-3 cells. The series is described as follows: Apoptosis assay (Annexin V-APC/PI). It is filed as cell-based. On the procedure: Apoptosis assay was performed with the Annexin V-APC/propidium iodide (PI) apoptosis kit (Biolegend, USA). […] […] Cells were stained with the apoptosis kit according to the manufacturer's instructions. All samples of cells were collected for flow cytometry using a BD FACSCanto flow cytometer (BD, USA). Data analysis was accomplished using FlowJo software.

Series [13] has as its system subcutaneous OSC-3 tumor. The series is described as follows: In vivo fluorescence imaging, tumor retention. On the set-up: species or system nude mice. As to conditions: intratumoral injection, 10 nmol per 50 mm^3.
Text: as §1
The subcutaneous tumor model was used in fluorescence imaging study in vivo of PA and PQC NFs. PA and PQC NFs (10 nmol per 50 mm^3 tumor) were administered by intratumoral injection. Fluorescence imaging were performed on a ChemiDoc™ MP imaging system (Bio-Rad, USA) at different time points post-injection.

A further series deals with OSC-3 tumors. The series is described as follows: Intratumoral ROS production (DCF-DA, ex vivo imaging). The following applies: laser at days 1, 2, 5, 6 post-injection. It is filed as in vivo, nude mice. The procedure:
Laser (680 nm) treatment was conduct by a laser device within an energy of 0.2 W cm^−2 for 6 min (Shanghai Xilong Optoelectronics Technology, China). Mice bearing subcutaneous and orthotopic tumors were randomly divided into four groups (n=6): Vehicle (PBS), DQA, PA, and PQC NFs. The drug was intratumorally injected into mice at a dose of 1 mM (10 nmol per 50 mm^3 tumor). Laser treatment was performed for a total of four times, one each on days 1, 2, 5, and 6 post-injection of drugs. The relative tumor value and body weight were recorded every two days. In subcutaneous models, the tumors in the right flank of mice were subjected to laser treatment, while the left tumors were not. In orthotopic models, all tumors were treated with the laser treatment. The temperature of tumor surface was monitored using a thermal camera (FLIR Systems, USA) immediately after laser treatment. ROS production in the tumor after light treatment was also measured using DCF-DA as an indicator. Briefly, the tumor was treated with different drugs via intratumoral injection at first. Then, the mice with tumors were treated with the laser at 1st, 2nd, 5th, and 6th day independently. […] The fluorescence intensity of DCF-DA was quantified by Image J software. […]

Series [14] in a line: Characterization of PQC NFs (TEM, DLS). It is filed as physicochemical. The procedure: Preparation and Characterization of PQC NFs: Briefly, PQC monomers in ethanol were added dropwise into deionized water under stirring. Ethanol in the solution was removed by vacuum rotary evaporation at 37° C. and the self-assembling PQC NFs were formed spontaneously. The aqueous nanofiber solution (0.02 mg mL^−1) was deposited on copper grids to prepare samples for transmission electron microscope (TEM). The morphology was observed by a Talos L120C TEM (Thermo Fisher Scientific, USA). The UV-Vis and fluorescence spectra were measured by a UV-Vis spectrometer (UV-1800, Shimadzu, Japan) and a fluorescence spectrometer (RF-6000, Shimadzu, Japan), respectively. NIR fluorescence imaging studies was performed by a ChemiDoc™ MP imaging system (Bio-Rad, USA). The ^1O2 production was detected using SOSG (Thermo Fisher Scientific, USA) as an indicator. Briefly, SOSG solution was added into drug solutions in 96 wells plate. […] Fluorescence intensity was determined by a microplate reader (Tecan, Switzerland). The ultrafiltration experiment of PQC NFs were conducted using a centrifuge (10k rpm, 10 min) and a centrifuge tube (10 kDa, Beckman Coulter, USA).

Read-outs that look alike come from different tables or passages of the source.

A word on the IC50: it is the midpoint of a concentration-inhibition curve. As for `Cc1cc(N)c2ccccc2[n+]1CCCCCCCCCC[n+]1c(C)cc(N)c2ccccc21` [DQA, dequalinium], the IC50 in the series with OSC-3 cells [1] (OSC-3, absence of light, 24 h + 24 h) stood at 3000 nM. The anticancer effect entry in the series on OSC-3 cells [1] is given as “did not show obvious anticancer effects”. Also, the “mitochondrial membrane potential change (JC-1)” value in the series with OSC-3 cells [2] is on record as “not effective enough to cause a signal change”. In addition, in the series with OSC-3 cells [3] (with light), the “morphological changes in mitochondria (TEM)” value (“morphological changes” for short) is “morphologically changed mitochondria with and without light treatment”. In addition, in the series with subcutaneous OSC-3 tumor [4], the “H&E staining of tumors” value is “no significant cell death”, the antitumor effect entry is reported as “did not show an obvious antitumor effect” and the antitumor efficacy result is on record as “did not show significant antitumor efficacy”.

For the compound `Cc1cc(N)c2ccccc2[n+]1CCCCCCCCCCNC(=O)c1nn(Cc2ccc(Cl)cc2Cl)c2ccccc12` [LM], in series [5] (72 h), half-maximal inhibition (IC50) required 460 ± 50 nM. In [6], the cell growth result is on record as “inhibitory effects”. In the series with Bxpc-3 and AsPc cells, the “potency on other pancreatic tumor cells” value is “more potent than LND, m104, mixture of LND and m104”. Besides, the tumorsphere formation entry in series [7] is “blocked tumorsphere formation in CSCs”. Also, the “CSC tumorsphere (with Stella cell) growth” value in [8] is reported as “inhibits CSC tumorsphere (with Stella cell) growth”. Further, the “mitochondrial membrane potential (JC-1)” value with CSC cells [9] is given as “decreased Δψm”. Further, the “oxygen consumption rate (Mito stress test)” value in the series with CSC cells [10] is “decrease in basal mitochondrial respiration and spare respiration capacity”.

Turning to `O=C(O)c1nn(Cc2ccc(Cl)cc2Cl)c2ccccc12` [LND, 1-(2,4-dichlorobenzyl)-1H-indazole-3-carboxylic acid], the IC50 in series [5] (CSC, 72 h treatment, read-out: IC50) was found to be 30000 ± 2200 nM. For the same compound, in series [7], the tumorsphere formation entry is recorded as “limited inhibition”. In series [8], the “CSC tumorsphere (with Stella cell) growth” value is “no effect”. The “oxygen consumption rate (Mito stress test)” value in the series with CSC cells [10] is “no significant impact on OCRs”.

On to pheophorbide a [PA], for which, in the series on OSC-3 cells [1] (OSC-3, absence of light), the cytotoxicity result is listed as “did not show cytotoxicity even at 100 uM”. The IC50 in the series with OSC-3 cells [1] (OSC-3, light treatment 30 mW cm^-2 for 30 s, 633 nm) was determined as 2570 nM. Also, the anticancer effect result in the series with OSC-3 cells [1] is “did not show obvious anticancer effects”. The subcellular colocalization entry in the series with OSC-3 cells [11] is reported as “low-level colocalization with mitochondria or lysosomes”. Further, in the series on OSC-3 cells [2], the “mitochondrial membrane potential change (JC-1)” value was “not effective enough to cause a signal change”. Besides, the apoptosis induction result in the series on OSC-3 cells [12] (0.2 μM, with light) was “failed to induce apoptosis”. In addition, the “Annexin V positive population” value with OSC-3 cells [12] (2 μM, 24 h, light, another 12 h) was determined as 19.3%. For the same compound, in the series on OSC-3 cells [3] (with light), the “morphological changes” value is on record as “only caused some mitochondrial swelling”. In addition, the “morphological changes” value in the series with OSC-3 cells [3] (without light) is reported as “healthy mitochondria”. Moreover, the “fluorescence within tumors over time” value in the series on subcutaneous OSC-3 tumor [13] was “nearly undetectable at the 4th day post-injection”. Moreover, the “ROS levels in tumors” value in the series on OSC-3 tumors was “high at 24 h post-injection and decreased quickly at later time points”. In the series on subcutaneous OSC-3 tumor [4], the “H&E staining of tumors” value was “only a small portion of tumor tissue showed apoptosis/necrosis”, the antitumor effect entry was “effectively inhibited tumor growth but did not shrink the tumors” and the antitumor efficacy entry is “did not show significant antitumor efficacy”. This compound also returned a surface charge in [14] of −11.5±1.3 mV.
